Broadly, the pIC50 is −log10 of the IC50, conventionally taken in molar units.

Among the data in ChEMBL document CHEMBL2069275, “Phenolic compounds as antiangiogenic CMG2 inhibitors from Costa Rican endophytic fungi” (Bioorg Med Chem Lett, 2012) are Activity, IC50 and inhibition values, retold here.

Data set [1] has as its system HMVEC. The data set is described as follows: Antiangiogenic activity against human HMVEC at 39 uM after 4 hrs by Diff-Quick staining relative to control. It is filed as functional.
A further data set deals with Anthrax toxin receptor 2 (Homo sapiens, UniProt P58335, R40C). The data set is described as follows: (§1) Inhibition of AF546-tagged CMG2 R40C mutant binding to AF488-tagged PA E733C mutant incubated for 1 to 3 hrs prior to AF488-tagged PA E733C addition measured after 3 to 4 hrs by FRET assay.
In data set [2] the test system is HMVEC. The data set is described as follows: Antiangiogenic activity against human HMVEC at 117 uM after 4 hrs by Diff-Quick staining relative to control. The class given is functional.
Data set [3] in a line: Antiproliferative activity against human HMVEC at 39 uM after 24 to 72 hrs by Cyquant-based fluorimetry relative to control.
Data set [4] in a line: Antiproliferative activity against human HMVEC at 117 uM after 24 to 72 hrs by Cyquant-based fluorimetry relative to control.
Data set [5] is described as follows: Antiproliferative activity against human HMVEC at 52 uM after 24 to 72 hrs by Cyquant-based fluorimetry relative to control.
The nature of data set [6]: Antiangiogenic activity against human HMVEC at 156 uM after 4 hrs by Diff-Quick staining relative to control. The class given is functional.
Data set [7] can be described thus: Antiangiogenic activity against human HMVEC at 52 uM after 4 hrs by Diff-Quick staining relative to control. It is filed as functional.
The nature of data set [8]: Antiproliferative activity against human HMVEC at 156 uM after 24 to 72 hrs by Cyquant-based fluorimetry relative to control.
In data set [9] the test system is Anthrax toxin receptor 2 (Homo sapiens), P58335 [R40C]. The description is as §1.

pIC50: −log10 of the molar value. Calls of active or inactive are those of the source. The rule behind the calls is not given here.

Anthrax toxin receptor 2, sequence (P58335 whole entry R40C): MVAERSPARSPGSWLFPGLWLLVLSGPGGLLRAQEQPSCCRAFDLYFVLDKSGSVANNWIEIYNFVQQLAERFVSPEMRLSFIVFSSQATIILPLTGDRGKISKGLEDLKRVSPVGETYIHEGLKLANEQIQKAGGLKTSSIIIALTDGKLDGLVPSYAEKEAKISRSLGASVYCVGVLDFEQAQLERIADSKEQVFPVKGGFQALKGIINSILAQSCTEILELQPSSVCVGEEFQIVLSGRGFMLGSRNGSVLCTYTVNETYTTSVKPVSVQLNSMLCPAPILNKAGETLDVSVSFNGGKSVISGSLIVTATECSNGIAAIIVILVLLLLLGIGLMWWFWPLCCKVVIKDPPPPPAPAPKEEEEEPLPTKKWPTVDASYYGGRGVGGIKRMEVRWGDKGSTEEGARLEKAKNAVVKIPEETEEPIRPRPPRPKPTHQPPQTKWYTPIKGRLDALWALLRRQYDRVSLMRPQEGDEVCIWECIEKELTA
Anthrax toxin receptor 2 (Homo sapiens), P58335 [R40C], sequence (P58335 whole entry R40C): as above

In the case of `COc1cccc2c1c(O)cc1cc(C)c(=O)oc12`, the result in the data set on HMVEC [1] and in the data set with HMVEC [2] was inactive. The same compound gave a pIC50 at Anthrax toxin receptor 2 of 6.30. The Activity entry in data set [3] and in [4] was “Toxic” each time.

Turning to `Cc1cc2cc(O)cc(O)c2c(=O)o1`, the Activity entry in data set [5] was “Non-toxic”; in [6], 93.1%; in data set [7] it was 96%; in [8], “Non-toxic”.

Take `COc1cccc2c1c(OC)cc1cc(C)c(=O)oc12`: the inhibition result in [9] was “inactive”.
